Results as given in patent US20090227597A1, “PYRAZOLOPYRIMIDINONES AS PHOSPHODIESTERASE INHIBITORS” (CTG PHARMA S.R.L., priority 2004, published 2009).
Counter-ions that a name gives are not always drawn.

Legend:
PDE5 enzyme = PDE5 enzyme (Homo sapiens, UniProt O76074); test: in vitro inhibition of cGMP PDE5; format: biochemical
Source text: The compounds of the present invention have been tested in vitro and found to be potent and selective inhibitors of cGMP PDE5.

Row | SMILES | melting point | IC50 (PDE5 enzyme)
1 | CCCc1nn(C)c2c(=O)[nH]c(-c3cc(S(=O)(=O)N4CCN(CC(=O)N[C@@H](CS)C(=O)O)CC4)ccc3OCC)nc12 (as salt: salt) (hydrate or solvate) [Example 2, sildenafil analog amide with cysteine] | 166 to 168 °C | 
2 | CCCc1nn(C)c2c(=O)[nH]c(-c3cc(S(=O)(=O)N4CCN(CC(=O)Oc5ccc(-c6cc(=S)ss6)cc5)CC4)ccc3OCC)nc12 [Example 1, sildenafil analog ester with 5-(p-hydroxyphenyl)-3H-1,2-dithiol-3-thione] | 188 to 189 °C | 6.8 to 7.2 nM
3 | CCCc1nn(C)c2c(=O)[nH]c(-c3cc(S(=O)(=O)N4CCN(CC(=O)N[C@@H](CS)C(=O)O)CC4)ccc3OCC)nc12 [Example 2, sildenafil analog amide with cysteine] |  | 6.8 to 7.2 nM
